Experiments:
Assay in all cases: combination Emax (second highest fraction inhibited in the dose matrix, 72 h); higher = more inhibition; extreme values may be limits of the assay
[1] = test system: ALL-PO (B-Lymphoblastic Leukemia)
Method in brief: (§1)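 Cell lines in DMEM/F12 or RPMI with 10% FBS were plated in 1536-well plates, held 24 hours at 37°C, 5% CO2, then given two-drug dose matrices for 72 hours (DMSO typically 0.2%). Viability was read by CellTiter-Glo 2.0 luminescence and scaled as inhibition from 0 (vehicle wells) to 1 (blank wells). Combination Emax is the second-highest inhibition in the matrix; Bliss excess is observed combination effect minus expected EA + EB − EA·EB, EA and EB being single-agent effects.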

[2] = test system: BFTC-909 (Kidney Carcinoma)
Method in brief: as §1

BPH-1 (Non-Cancerous) = test system: BPH-1 (Non-Cancerous)
Method in brief: as §1

CAL-72 (Osteosarcoma) = test system: CAL-72 (Osteosarcoma)
Method in brief: as §1

[3] = test system: ESS-1 (Other Solid Carcinomas)
Method in brief: as §1

EW-11 (Ewing's Sarcoma) = test system: EW-11 (Ewing's Sarcoma)
Method in brief: as §1

[4] = test system: FTC-133 (Thyroid Gland Carcinoma)
Method in brief: as §1

[5] = test system: HH (T-Cell Non-Hodgkin's Lymphoma)
Method in brief: as §1

[6] = test system: HeLa (Cervical Carcinoma)
Method in brief: as §1

[7] = test system: HuCCT1 (Biliary Tract Carcinoma)
Method in brief: as §1

[8] = test system: L-428 (Hodgkin's Lymphoma)
Method in brief: as §1

[9] = test system: LNZTA3WT4 (Low Grade Glioma)
Method in brief: as §1

LOXIMVI (Melanoma) = test system: LOXIMVI (Melanoma)
Method in brief: as §1

[10] = test system: LS-123 (Colorectal Carcinoma)
Method in brief: as §1

[11] = test system: NUGC-4 (Gastric Carcinoma)
Method in brief: as §1

[12] = test system: OE21 (Esophageal Squamous Cell Carcinoma)
Method in brief: as §1

[13] = test system: SNU-449 (Hepatocellular Carcinoma)
Method in brief: as §1

[14] = test system: SW1573 (Lung Adenocarcinoma)
Method in brief: as §1

[15] = test system: TGBC1TKB (Biliary Tract Carcinoma)
Method in brief: as §1

[16] = test system: WSU-NHL (B-Cell Non-Hodgkin's Lymphoma)
Method in brief: as §1

Row | SMILES | combination Emax [1] | combination Emax [2] | combination Emax (BPH-1 (Non-Cancerous)) | combination Emax (CAL-72 (Osteosarcoma)) | combination Emax [3] | combination Emax (EW-11 (Ewing's Sarcoma)) | combination Emax [4] | combination Emax [5] | combination Emax [6] | combination Emax [7] | combination Emax [8] | combination Emax [9] | combination Emax (LOXIMVI (Melanoma)) | combination Emax [10] | combination Emax [11] | combination Emax [12] | combination Emax [13] | combination Emax [14] | combination Emax [15] | combination Emax [16]
1 | COc1cccc(OCCCN)c1-c1cc(Nc2cnc(C#N)cn2)n[nH]1 [Prexasertib] + CN(C)CCCOc1ccc(-c2ccc3ncc4c(c3c2)n(C2CCOCC2)c(=O)n4C)cn1 [AZD0156] (first compound max 1 µM, 7x7, partner max 1 µM) | 0.979 | 0.936 | 0.235 | 0.847 | 1 | 0.756 | 0.805 | 0.703 | 0.859 | 0.819 | 0.958 | 0.885 | 0.862 | 0.752 | 0.49 | 0.726 | 0.326 | 0.201 | 0.361 | 1
2 | COc1nnc2ccc(N3CCC(c4ccc(OCCN5CCN(C)C(=O)[C@H]5C)cc4)CC3)nn12 [AZD5153] + Cc1c2c(nn1C)CSCc1cc(n(C)n1)CSc1cc(c3ccccc3c1)OCCCc1c(C(=O)O)n(C)c3c-2c(Cl)ccc13 [AZD5991] (first compound max 1 µM, 7x7, partner max 1 µM) | 1 | 0.535 | 0.86 | 0.792 | 0.898 | 0.945 | 0.615 | 1 | 0.799 | 0.495 | 0.833 | 0.441 | 0.975 | 0.406 | 0.652 | 0.83 | 0.292 | 0.422 | 0.289 | 1
3 | Cc1c2c(nn1C)CSCc1cc(n(C)n1)CSc1cc(c3ccccc3c1)OCCCc1c(C(=O)O)n(C)c3c-2c(Cl)ccc13 [AZD5991] + Cn1cnc2c(F)c(Nc3ccc(Br)cc3Cl)c(C(=O)NOCCO)cc21 [Selumetinib] (first compound max 1 µM, 7x7, partner max 3 µM) | 1 | 0.3 | 0.604 | 0.406 | 0.224 | 0.76 | 0.738 | 0.714 | 0.496 | 0.508 | 0.0936 | 0.237 | 0.513 | 0.455 | 0.616 | 0.469 | 0.246 | 0.169 | 0.187 | 0.934
4 | CC1(C)CCC(CN2CCN(c3ccc(C(=O)NS(=O)(=O)c4ccc(NCC5CCOCC5)c([N+](=O)[O-])c4)c(Oc4cnc5[nH]ccc5c4)c3)CC2)=C(c2ccc(Cl)cc2)C1 [Venetoclax] + COc1cc(Nc2ncc3c(n2)-c2ccc(Cl)cc2C(c2c(F)cccc2OC)=NC3)ccc1C(=O)O [Alisertib] (first compound max 1 µM, 7x7, partner max 10 µM) | 1 | 0.502 | 0.745 | 0.591 | 0.957 | 0.649 | 0.416 | 0.222 | 0.702 | 0.365 | 0.363 | 0.472 | 0.5 | 0.385 | 0.166 | 0.382 | 0.313 | 0.168 | 0.403 | 0.985
5 | Cn1cnc2c(F)c(Nc3ccc(Br)cc3Cl)c(C(=O)NOCCO)cc21 [Selumetinib] + CC(C)n1c(=O)n(C)c2cnc3cc(F)c(-c4ccc(OCCCN5CCCCC5)nc4)cc3c21 [AZD1390] (first compound max 10 µM, 7x7, partner max 0.3 µM) | 0.301 | 0.184 | 0.487 | 0.165 | 0.246 | 0.103 | 0.166 | 0.198 | 0.0672 | 0.517 | 0.0975 | 0.226 | 0.658 | 0.488 | 0.481 | 0.386 | 0.16 | 0 | 0.152 | 0.205
6 | CS(=O)(=O)CCNCc1ccc(-c2ccc3ncnc(Nc4ccc(OCc5cccc(F)c5)c(Cl)c4)c3c2)o1 [Lapatinib] + C[C@@H](Oc1cc(-c2cnn(C3CCNCC3)c2)cnc1N)c1c(Cl)ccc(F)c1Cl [Crizotinib] (first compound max 10 µM, 7x7, partner max 10 µM) | 1 | 0.869 | 0.949 | 0.906 | 0.917 | 0.936 | 0.84 | 0.327 | 0.859 | 0.883 | 0.913 | 0.872 | 0.977 | 0.746 | 0.808 | 0.936 | 0.827 | 0.462 | 0.616 | 0.966
7 | CC1(C)CCC(CN2CCN(c3ccc(C(=O)NS(=O)(=O)c4ccc(NCC5CCOCC5)c([N+](=O)[O-])c4)c(Oc4cnc5[nH]ccc5c4)c3)CC2)=C(c2ccc(Cl)cc2)C1 [Venetoclax] + Cc1cc2ncnn2cc1Nc1ncc2c(n1)n(C1CCOCC1)c(=O)n2C [AZD7648] (first compound max 1 µM, 7x7, partner max 10 µM) | 0.613 | 0.294 | 0.232 | 0.643 | 0.886 | 0.558 | 0.182 | 0.273 | 0.199 | 0.284 | 0.215 | 0.385 | 0.254 | 0.313 | 0.232 | 0.206 | 0.229 | 0.144 | 0.297 | 0.869
8 | CC(=O)c1c(C)c2cnc(Nc3ccc(N4CCNCC4)cn3)nc2n(C2CCCC2)c1=O [Palbociclib] + Cn1cnc2c(F)c(Nc3ccc(Br)cc3Cl)c(C(=O)NOCCO)cc21 [Selumetinib] (first compound max 10 µM, 7x7, partner max 10 µM) | 0.697 | 0.358 | 0.518 | 0.361 | 0.283 | 0.168 | 0.202 | 0.407 | 0.104 | 0.556 | 0.395 | 0.333 | 0.744 | 0.428 | 0.392 | 0.54 | 0.338 | 0.164 | 0.167 | 0.886
9 | COc1cccc(OCCCN)c1-c1cc(Nc2cnc(C#N)cn2)n[nH]1 [Prexasertib] + O=C(c1cc(Cc2n[nH]c(=O)c3ccccc23)ccc1F)N1CCN(C(=O)C2CC2)CC1 [Olaparib] (first compound max 1 µM, 7x7, partner max 10 µM) | 0.979 | 0.917 | 0.497 | 0.81 | 1 | 0.792 | 0.915 | 0.542 | 0.773 | 0.844 | 0.953 | 0.885 | 0.788 | 0.771 | 0.415 | 0.678 | 0.234 | 0.241 | 0.446 | 1
10 | COc1nnc2ccc(N3CCC(c4ccc(OCCN5CCN(C)C(=O)[C@H]5C)cc4)CC3)nn12 [AZD5153] + CC1(C)CCC(CN2CCN(c3ccc(C(=O)NS(=O)(=O)c4ccc(NCC5CCOCC5)c([N+](=O)[O-])c4)c(Oc4cnc5[nH]ccc5c4)c3)CC2)=C(c2ccc(Cl)cc2)C1 [Venetoclax] (first compound max 1 µM, 7x7, partner max 1 µM) | 0.889 | 0.496 | 0.745 | 0.495 | 0.63 | 0.457 | 0.578 | 0.406 | 0.433 | 0.511 | 0.8 | 0.344 | 0.882 | 0.43 | 0.567 | 0.662 | 0.252 | 0.43 | 0.293 | 0.978
11 | Cc1c2c(nn1C)CSCc1cc(n(C)n1)CSc1cc(c3ccccc3c1)OCCCc1c(C(=O)O)n(C)c3c-2c(Cl)ccc13 [AZD5991] + C[C@@H](Nc1cc(F)cc(F)c1)c1cc(C(=O)N(C)C)cc2c(=O)cc(N3CCOCC3)oc12 [AZD8186] (first compound max 1 µM, 7x7, partner max 3 µM) | 1 | 0.3 | 0.461 | 0.365 | 0.372 | 0.906 | 0.667 | 0.87 | 0.614 | 0.4 | 0.12 | 0.232 | 0.268 | 0.336 | 0.374 | 0.397 | 0.216 | 0.288 | 0.377 | 0.987
12 | Cc1c2c(nn1C)CSCc1cc(n(C)n1)CSc1cc(c3ccccc3c1)OCCCc1c(C(=O)O)n(C)c3c-2c(Cl)ccc13 [AZD5991] + CC1(C)CCC(CN2CCN(c3ccc(C(=O)NS(=O)(=O)c4ccc(NCC5CCOCC5)c([N+](=O)[O-])c4)c(Oc4cnc5[nH]ccc5c4)c3)CC2)=C(c2ccc(Cl)cc2)C1 [Venetoclax] (first compound max 1 µM, 7x7, partner max 1 µM) | 1 | 0.239 | 0.353 | 0.423 | 0.39 | 0.975 | 0.677 | 0.858 | 0.794 | 0.203 | 0.158 | 0.203 | 0.229 | 0.142 | 0.178 | 0.454 | 0.23 | 0.177 | 0.161 | 0.975

Source: the supplement of paper PMC11061612
